Among the data in patent publication US10308637B2 (LifeSci Pharmaceuticals, Inc., priority 2015, dated 2019) are EC50 values, retold here.

The structures appear in SMILES notation.

The assay can be described thus: Contact Assay (percentage inhibition from fluorescence intensity). It is filed as biochemical. Here is the method: The percentage inhibition was calculated using the following equation:
[formula] where, Mean(BG) is the average value of the fluorescence intensity of the background wells and Mean(PC) is the average value of the fluorescence intensity of the positive control wells.
Table 4 provides the EC50 values of various compounds disclosed herein.
As a reminder, the EC50 is the concentration giving half of the maximal effect. Read a low EC50 as greater potency. Turning to `Cc1cnc2c(S(C)(=O)=O)cc(Cc3cc(C(=O)NCc4c(C)cc(N)nc4C)ccn3)cc2c1` [Example 15, N-((6-amino-2,4-dimethylpyridin-3-yl)methyl)-2-((3-methyl-8-(methylsulfonyl)quinolin-6-yl)methyl)isonicotinamide], the EC50 is no more than 0.1 µM.

`Cc1cnc2c(S(C)(=O)=O)cc(Cc3cc(C(=O)NCc4ccc5c(N)nccc5c4)ccn3)cc2c1` [Example 16, N-((1-aminoisoquinolin-6-yl)methyl)-2-((3-methyl-8-(methylsulfonyl)quinolin-6-yl)methyl)isonicotinamide]: the EC50 was no more than 0.1 µM. The figure for `Cc1cnc2c(S(C)(=O)=O)cc(Cc3cc(C(=O)NCc4cc5c(Cl)c[nH]c5cc4F)ccn3)cc2c1` [Example 17, N-((3-chloro-6-fluoro-1H-indol-5-yl)methyl)-2-((3-methyl-8-(methylsulfonyl)quinolin-6-yl)methyl)isonicotinamide] is no more than 0.1 µM.

In the case of `Cc1cnc2c(S(C)(=O)=O)cc(Cc3cc(C(=O)NCc4cc5cc[nH]c5cc4F)ccn3)cc2c1` [Example 18, N-((6-fluoro-1H-indol-5-yl)methyl)-2-((3-methyl-8-(methylsulfonyl)quinolin-6-yl)methyl)isonicotinamide], the EC50 fell in the range of 0.1 to 1 µM.

The compound `Cc1cnc2c(S(C)(=O)=O)cc(Cc3cc(C(=O)NCc4n[nH]c5ccc(Cl)cc45)ccn3)cc2c1` [Example 20, N-((5-chloro-1H-indazol-3-yl)methyl)-2-((3-methyl-8-(methylsulfonyl)quinolin-6-yl)methyl)isonicotinamide] came in with an EC50 of no more than 0.1 µM. Turning to `Cc1cnc2c(S(C)(=O)=O)cc(Cc3cc(C(=O)NCc4ccc5[nH]cc(Cl)c5c4F)ccn3)cc2c1` [Example 21, N-((3-chloro-4-fluoro-1H-indol-5-yl)methyl)-2-((3-methyl-8-(methylsulfonyl)quinolin-6-yl)methyl)isonicotinamide], the EC50 was no more than 0.1 µM. `Cc1nc(N)ccc1CNC(=O)c1ccnc(Cc2ccc3ncc(Cl)cc3c2)c1` [Example 34, N-((6-amino-2-methylpyridin-3-yl)methyl)-2-((3-chloroquinolin-6-yl)methyl)isonicotinamide] had an EC50 of no more than 0.1 µM.

In turn, `Cc1cc(N)nc(C)c1CNC(=O)c1ccnc(Cc2ccc3ncc(Cl)cc3c2)c1` [Example 35, N-((6-amino-2,4-dimethylpyridin-3-yl)methyl)-2-((3-chloroquinolin-6-yl)methyl)isonicotinamide] yielded an EC50 of no more than 0.1 µM. In the case of `O=C(NCc1cnc2[nH]cc(Cl)c2c1)c1ccnc(Cc2ccc3ncc(Cl)cc3c2)c1` [Example 38, N-(3-Chloro-1H-pyrrolo[2,3-b]pyridin-5-ylmethyl)-2-(3-chloro-quinolin-6-ylmethyl)-isonicotinamide], the EC50 was 0.1 to 1 µM. Regarding `O=C(NCc1ccc2[nH]cc(Cl)c2c1F)c1ccnc(Cc2ccc3ncc(Cl)cc3c2)c1` [Example 40, N-(3-Chloro-4-fluoro-1H-indol-5-ylmethyl)-2-(3-chloro-quinolin-6-ylmethyl)-isonicotinamide], the EC50 was 0.1 to 1 µM. Next, `N#Cc1cc(Cc2cc(C(=O)NCc3ccc4c(N)nccc4c3)ccn2)cc2cc(Cl)cnc12` [Example 57, N-(1-amino-isoquinolin-6-ylmethyl)-2-(3-chloro-8-cyano-quinolin-6-ylmethyl)-isonicotinamide]: 0.1 to 1 µM.

Turning to `NC(=O)c1cc(Cc2cc(C(=O)NCc3n[nH]c4ccc(Cl)cc34)ccn2)cc2cc(Cl)cnc12` [Example 60, 3-chloro-6-((4-(((5-chloro-1H-indazol-3-yl)methyl)carbamoyl)pyridin-2-yl)methyl)quinoline-8-carboxamide], the EC50 lay within 0.1 to 1 µM. Next, `NC(=O)c1cc(Cc2cc(C(=O)NCc3cnc4[nH]cc(Cl)c4c3)ccn2)cc2cc(Cl)cnc12` [Example 61, 3-chloro-6-((4-(((3-chloro-1H-pyrrolo[2,3-b]pyridin-5-yl)methyl)carbamoyl)pyridin-2-yl)methyl)quinoline-8-carboxamide]: 0.1 to 1 µM; `Cc1nc(N)ccc1CNC(=O)c1ccnc(Cc2cc(C(N)=O)c3ncc(Cl)cc3c2)c1` [Example 62, 6-((4-(((6-amino-2-methylpyridin-3-yl)methyl)carbamoyl)pyridin-2-yl)methyl)-3-chloroquinoline-8-carboxamide]: no more than 0.1 µM. Take `NC(=O)c1cc(Cc2cc(C(=O)NCc3ccc4c(N)nccc4c3)ccn2)cc2cc(Cl)cnc12` [Example 64, 6-((4-(((1-aminoisoquinolin-6-yl)methyl)carbamoyl)pyridin-2-yl)methyl)-3-chloroquinoline-8-carboxamide]: the EC50 is no more than 0.1 µM. `NC(=O)c1cc(Cc2cc(C(=O)NCc3ccc4[nH]cc(Cl)c4c3F)ccn2)cc2cc(Cl)cnc12` [Example 65, 3-chloro-6-((4-(((3-chloro-4-fluoro-1H-indol-5-yl)methyl)carbamoyl)pyridin-2-yl)methyl)quinoline-8-carboxamide] registered an EC50 of no more than 0.1 µM. `NC(=O)c1cc(Cc2cc(C(=O)NCc3cc4cc[nH]c4cc3F)ccn2)cc2cc(Cl)cnc12` [Example 66, 3-chloro-6-((4-(((6-fluoro-1H-indol-5-yl)methyl)carbamoyl)pyridin-2-yl)methyl)quinoline-8-carboxamide] came in with an EC50 of 0.1 to 1 µM. The compound `Cc1cc(N)nc(C)c1CNC(=O)c1ccnc(Cc2cc(S(C)(=O)=O)c3ncc(Cl)cc3c2)c1` [Example 67, N-((6-amino-2,4-dimethylpyridin-3-yl)methyl)-2-((3-chloro-8-(methylsulfonyl)quinolin-6-yl)methyl)isonicotinamide] yielded an EC50 of no more than 0.1 µM. The compound `CS(=O)(=O)c1cc(Cc2cc(C(=O)NCc3cc4c(Cl)c[nH]c4cc3F)ccn2)cc2cc(Cl)cnc12` [Example 68, N-((3-chloro-6-fluoro-1H-indol-5-yl)methyl)-2-((3-chloro-8-(methylsulfonyl)quinolin-6-yl)methyl)isonicotinamide] yielded an EC50 of no more than 0.1 µM.

The compound `Cc1nc(N)ccc1CNC(=O)c1ccnc(Cc2cc(S(C)(=O)=O)c3ncc(Cl)cc3c2)c1` [Example 69, N-((6-amino-2-methylpyridin-3-yl)methyl)-2-((3-chloro-8-(methylsulfonyl)quinolin-6-yl)methyl)isonicotinamide] came in with an EC50 of no more than 0.1 µM.

Take `Cc1cnc2c(C#N)cc(Cc3cc(C(=O)NCc4c(C)cc(N)nc4C)ccn3)cc2c1` [Example 70, N-((6-amino-2,4-dimethylpyridin-3-yl)methyl)-2-((8-cyano-3-methylquinolin-6-yl)methyl)isonicotinamide]: the EC50 is no more than 0.1 µM. `Cc1cnc2c(C#N)cc(Cc3cc(C(=O)NCc4ccc5c(N)nccc5c4)ccn3)cc2c1` [Example 71, N-((1-aminoisoquinolin-6-yl)methyl)-2-((8-cyano-3-methylquinolin-6-yl)methyl)isonicotinamide] yielded an EC50 of no more than 0.1 µM. As for `Cc1cnc2c(C#N)cc(Cc3cc(C(=O)NCc4cnc5[nH]cc(Cl)c5c4)ccn3)cc2c1` [Example 73, N-((3-chloro-1H-pyrrolo[2,3-b]pyridin-5-yl)methyl)-2-((8-cyano-3-methylquinolin-6-yl)methyl)isonicotinamide], the EC50 lay in the range of 0.1 to 1 µM. With `Cc1cnc2c(C(N)=O)cc(Cc3cc(C(=O)NCc4c(C)cc(N)nc4C)ccn3)cc2c1` [Example 77, 6-((4-(((6-amino-2,4-dimethylpyridin-3-yl)methyl)carbamoyl)pyridin-2-yl)methyl)-3-methylquinoline-8-carboxamide], the EC50 is no more than 0.1 µM. `Cc1cnc2c(C(N)=O)cc(Cc3cc(C(=O)NCc4cc5c(Cl)c[nH]c5cc4F)ccn3)cc2c1` [Example 78, 6-((4-(((3-chloro-6-fluoro-1H-indol-5-yl)methyl)carbamoyl)pyridin-2-yl)methyl)-3-methylquinoline-8-carboxamide] returned a concentration giving a half-maximal response (EC50) of no more than 0.1 µM.

In turn, `Cc1cnc2c(C(N)=O)cc(Cc3cc(C(=O)NCc4ccc5c(N)nccc5c4)ccn3)cc2c1` [Example 79, 6-((4-(((1-aminoisoquinolin-6-yl)methyl)carbamoyl)pyridin-2-yl)methyl)-3-methylquinoline-8-carboxamide] registered an EC50 of no more than 0.1 µM. With `Cc1cnc2c(C(N)=O)cc(Cc3cc(C(=O)NCc4cnc5[nH]cc(Cl)c5c4)ccn3)cc2c1` [Example 80, 6-((4-(((3-chloro-1H-pyrrolo[2,3-b]pyridin-5-yl)methyl)carbamoyl)pyridin-2-yl)methyl)-3-methylquinoline-8-carboxamide], the EC50 is no more than 0.1 µM.

With `Cc1cnc2c(C(N)=O)cc(Cc3cc(C(=O)NCc4cc5cc[nH]c5cc4F)ccn3)cc2c1` [Example 83, 6-((4-(((6-fluoro-1H-indol-5-yl)methyl)carbamoyl)pyridin-2-yl)methyl)-3-methylquinoline-8-carboxamide], the EC50 lay within 0.1 to 1 µM.

`Cc1cnc2c(C(=O)O)cc(Cc3cc(C(=O)NCc4c(C)cc(N)nc4C)ccn3)cc2c1` [Example 84, 6-((4-(((6-amino-2,4-dimethylpyridin-3-yl)methyl)carbamoyl)pyridin-2-yl)methyl)-3-methylquinoline-8-carboxylic acid] returned an EC50 of no more than 0.1 µM. With `Cc1cc(N)nc(C)c1CNC(=O)c1ccnc(Cc2cc(F)c3ncc(Cl)cc3c2)c1` [Example 89, N-(6-amino-2,4-dimethyl-pyridin-3-ylmethyl)-2-(3-chloro-8-fluoro-quinolin-6-ylmethyl)-isonicotinamide], the EC50 was no more than 0.1 µM.

As for `Cc1nc(N)ccc1CNC(=O)c1ccnc(Cc2cc(F)c3ncc(Cl)cc3c2)c1` [Example 91, N-(6-amino-2-methyl-pyridin-3-ylmethyl)-2-(3-chloro-8-fluoro-quinolin-6-ylmethyl)-isonicotinamide], the EC50 was no more than 0.1 µM. As to `COC(=O)c1cc(Cc2cc(C(=O)NCc3c(C)cc(N)nc3C)ccn2)cc2cc(Cl)cnc12` [Example 92, methyl 6-((4-(((6-amino-2,4-dimethylpyridin-3-yl)methyl)carbamoyl)pyridin-2-yl)methyl)-3-chloroquinoline-8-carboxylate], the EC50 is no more than 0.1 µM.
